In US9579314B2 (priority 2015, dated 2017) one finds IC50 data, which are given here for six compounds.

A value given as a limit tells only on which side of the number the result lay.

One assay concerns the target Human M3 receptor (Homo sapiens, UniProt P20309). The note with it: read-out: M3 binding affinity.
In a further assay the target is Human β2 adrenoceptor (Homo sapiens, UniProt P07550). The note with it: read-out: B2 binding affinity.
Sequence of Human β2 adrenoceptor (P07550 whole entry): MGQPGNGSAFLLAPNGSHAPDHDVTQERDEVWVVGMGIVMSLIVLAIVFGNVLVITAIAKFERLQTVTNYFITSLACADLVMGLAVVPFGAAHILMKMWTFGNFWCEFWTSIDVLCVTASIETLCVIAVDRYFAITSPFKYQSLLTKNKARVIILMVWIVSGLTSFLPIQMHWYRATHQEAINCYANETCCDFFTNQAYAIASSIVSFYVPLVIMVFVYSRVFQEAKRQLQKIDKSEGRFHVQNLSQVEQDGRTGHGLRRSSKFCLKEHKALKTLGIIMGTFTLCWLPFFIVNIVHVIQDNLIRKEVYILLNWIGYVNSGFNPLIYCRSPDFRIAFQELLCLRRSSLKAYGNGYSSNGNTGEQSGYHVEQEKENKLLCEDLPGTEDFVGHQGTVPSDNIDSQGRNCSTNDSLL

Sequence of Human M3 receptor (P20309 whole entry): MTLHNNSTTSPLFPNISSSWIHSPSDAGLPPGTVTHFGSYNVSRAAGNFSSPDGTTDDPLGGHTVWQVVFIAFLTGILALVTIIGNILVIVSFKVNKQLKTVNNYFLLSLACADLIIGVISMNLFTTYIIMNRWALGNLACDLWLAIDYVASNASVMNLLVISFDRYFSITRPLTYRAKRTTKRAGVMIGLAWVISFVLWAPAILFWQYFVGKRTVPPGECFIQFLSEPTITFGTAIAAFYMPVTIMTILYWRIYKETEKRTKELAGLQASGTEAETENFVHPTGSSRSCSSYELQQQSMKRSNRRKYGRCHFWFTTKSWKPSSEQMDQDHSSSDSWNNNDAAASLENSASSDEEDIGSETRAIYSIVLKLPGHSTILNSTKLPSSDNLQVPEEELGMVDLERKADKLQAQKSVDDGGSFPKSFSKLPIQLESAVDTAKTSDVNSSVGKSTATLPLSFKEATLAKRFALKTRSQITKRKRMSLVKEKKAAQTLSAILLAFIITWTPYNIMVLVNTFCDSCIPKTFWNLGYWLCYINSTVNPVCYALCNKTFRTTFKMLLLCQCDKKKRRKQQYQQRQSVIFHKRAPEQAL

`COc1cc(NC(=O)COc2cccc([C@](O)(C(=O)OCC3CCN(Cc4ccccc4)CC3)c3ccccc3)c2)ccc1CNC[C@H](O)c1ccc(O)c2[nH]c(=O)ccc12` [Compound 42A, (S)-(1-benzylpiperidin-4-yl)methyl 2-hydroxy-2-(3-(2-((4-((((R)-2-hydroxy-2-(8-hydroxy-2-oxo-1,2-dihydroquinolin-5-yl)ethyl)amino)methyl)-3-methoxyphenyl)amino)-2-oxoethoxy)phenyl)-2-phenylacetate]: the IC50 at Human M3 receptor is below 0.3 nM; on Human β2 adrenoceptor, 0.3 to 3 nM.

For the compound `O=C(COc1cccc([C@](O)(C(=O)OCC2CCN(Cc3ccccc3)CC2)c2ccccc2)c1)N[C@@H]1CCN(C(=O)c2ccc(CNC[C@H](O)c3ccc(O)c4[nH]c(=O)ccc34)cc2)C1` [Compound 68, (1-benzylpiperidin-4-yl)methyl (S)-2-hydroxy-2-(3-(2-(((R)-1-(4-((((R)-2-hydroxy-2-(8-hydroxy-2-oxo-1,2-dihydroquinolin-5-yl)ethyl)amino)methyl)benzoyl)pyrrolidin-3-yl)amino)-2-oxoethoxy)phenyl)-2-phenylacetate], the IC50 on Human M3 receptor and at Human β2 adrenoceptor was 0.3 to 3 nM throughout.

As to `O=C(NCc1ccc(COc2cccc([C@](O)(C(=O)OCC3CCN(Cc4ccccc4)CC3)c3ccccc3)c2)cc1)c1ccc(CNC[C@H](O)c2ccc(O)c3[nH]c(=O)ccc23)cc1` [Compound 42D, (1-benzylpiperidin-4-yl)methyl (S)-2-hydroxy-2-(3-((4-((4-((((R)-2-hydroxy-2-(8-hydroxy-2-oxo-1,2-dihydroquinolin-5-yl)ethyl)amino)methyl)benzamido)methyl)benzyl)oxy)phenyl)-2-phenylacetate], the values for the IC50 at Human M3 receptor and at Human β2 adrenoceptor were 0.3 to 3 nM and below 0.3 nM, respectively.

With `O=C(N[C@@H]1CCCN(C(=O)COc2cccc([C@](O)(C(=O)OCC3CCN(Cc4ccccc4)CC3)c3ccccc3)c2)C1)c1ccc(CCNC[C@H](O)c2ccc(O)c3[nH]c(=O)ccc23)cc1` [Compound 113, (1-benzylpiperidin-4-yl)methyl (S)-2-hydroxy-2-(3-(2-((R)-3-(4-(2-(((R)-2-hydroxy-2-(8-hydroxy-2-oxo-1,2-dihydroquinolin-5-yl)ethyl)amino)ethyl)benzamido)piperidin-1-yl)-2-oxoethoxy)phenyl)-2-phenylacetate], the IC50 on Human M3 receptor and on Human β2 adrenoceptor was 0.3 to 3 nM in each case.

Take `O=C(COc1cccc([C@](O)(C(=O)OCC2CCN(Cc3ccccc3)CC2)c2ccccc2)c1)N1CCN(C(=O)c2ccc(CNC[C@H](O)c3ccc(O)c4[nH]c(=O)ccc34)cc2)CC1` [Compound 58, (1-benzylpiperidin-4-yl)methyl (S)-2-hydroxy-2-(3-(2-(4-(4-((((R)-2-hydroxy-2-(8-hydroxy-2-oxo-1,2-dihydroquinolin-5-yl)ethyl)amino)methyl)benzoyl)piperazin-1-yl)-2-oxoethoxy)phenyl)-2-phenylacetate]: the IC50 on Human M3 receptor and at Human β2 adrenoceptor was 0.3 to 3 nM in each case.

Take `O=C(COc1cccc([C@](O)(C(=O)OCC2CCN(Cc3ccccc3)CC2)c2ccccc2)c1)N[C@H]1C[C@H](NC(=O)c2ccc(CNC[C@H](O)c3ccc(O)c4[nH]c(=O)ccc34)c(F)c2)C1` [Compound 132, (1-benzylpiperidin-4-yl)methyl (S)-2-(3-(2-(((1R,3S)-3-(3-fluoro-4-((((R)-2-hydroxy-2-(8-hydroxy-2-oxo-1,2-dihydroquinolin-5-yl)ethyl)amino)methyl)benzamido)cyclobutyl)amino)-2-oxoethoxy)phenyl)-2-hydroxy-2-phenylacetate]: the IC50 was 0.3 to 3 nM at Human M3 receptor and below 0.3 nM at Human β2 adrenoceptor.
